# Data: patent publication US20230310478A1, “METHODS AND COMPOSITIONS FOR THE TREATMENT OF PULMONARY HYPERTENSION AND CANCER” (Ann and Robert H. Lurie Children's Hospital of Chicago, priority 2020, published 2023)
# Entries after “also recorded” stand apart in the source; their conditions may differ. Structures can show the parent of a compound that is named as a salt.
# Key:
# HIF-2α [1] = molecular target: T1, HIF-2α (Homo sapiens, UniProt Q99814); assay: HRE-luciferase activity in stable HRE/luciferase-expressing 786-O cells; type: cell-based; details: for HRE luciferase activity (HIF activity), result in words: stable HRE-luciferase 786-O cells
# T1 construct: endogenous in cells; host or cells: 786-O cells stably expressing HRE-luciferase
# T1 sequence (Q99814 whole entry): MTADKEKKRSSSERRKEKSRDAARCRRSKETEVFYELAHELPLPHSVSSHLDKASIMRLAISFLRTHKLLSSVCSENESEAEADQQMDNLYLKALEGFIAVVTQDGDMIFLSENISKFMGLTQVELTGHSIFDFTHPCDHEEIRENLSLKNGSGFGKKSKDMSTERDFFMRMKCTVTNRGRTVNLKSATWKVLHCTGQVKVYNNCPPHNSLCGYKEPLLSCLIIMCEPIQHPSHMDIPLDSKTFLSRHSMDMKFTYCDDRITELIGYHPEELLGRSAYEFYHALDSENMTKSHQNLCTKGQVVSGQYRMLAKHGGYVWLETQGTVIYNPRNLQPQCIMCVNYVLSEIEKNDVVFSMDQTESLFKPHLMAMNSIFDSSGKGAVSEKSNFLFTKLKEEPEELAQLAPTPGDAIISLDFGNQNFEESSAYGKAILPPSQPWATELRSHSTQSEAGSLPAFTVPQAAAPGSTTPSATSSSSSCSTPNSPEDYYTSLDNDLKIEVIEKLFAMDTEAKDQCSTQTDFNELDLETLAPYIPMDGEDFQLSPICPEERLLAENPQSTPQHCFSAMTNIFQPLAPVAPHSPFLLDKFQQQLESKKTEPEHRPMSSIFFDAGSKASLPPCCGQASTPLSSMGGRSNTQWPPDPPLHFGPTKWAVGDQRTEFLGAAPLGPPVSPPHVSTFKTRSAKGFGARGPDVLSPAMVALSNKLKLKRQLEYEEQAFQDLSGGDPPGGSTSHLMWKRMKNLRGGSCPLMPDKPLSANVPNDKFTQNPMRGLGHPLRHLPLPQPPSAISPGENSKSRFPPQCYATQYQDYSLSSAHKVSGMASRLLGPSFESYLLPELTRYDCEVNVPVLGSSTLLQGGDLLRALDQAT
# Procedure: HRE, hypoxia-responsive element.
# FIG. 5. […] PBS was used in CTL and compound C76 was used as a positive control. **, P<0.01, ****, P<0.0001. Student t test.
# FIG. 7. Ethacridine is a potent HIF-α inhibitor. To validate the inhibitory effect of Ethacridine, stable 786-O cells expressing HRE-Luciferase was treated with Ethacridine at the indicated concentration for 24 h. Luciferase activity was then measured and normalized to control vehicle (DMSO) group. Ethacridine at 5 uM could inhibited approximately 80% HRE activity, i.e., HIF activity. Data are expressed as mean±SD. […]
# SDF1 = assay: quantitative RT-PCR of PH-causing genes in DMOG-treated HLMVECs: SDF1; details: 24 h, mean±SD
# Procedure: (§1) Regarding Table 2, human lung microvascular endothelial cells (ECs) were treated with 2-Dimethyloxalylglycine (DMOG, PHD inhibitor) and either vehicle (DMSO) or various HIF inhibitors for 24 h. RNA was isolated for quantitative RT-PCR analysis.
# Endothelin-1 = assay: quantitative RT-PCR of PH-causing genes in DMOG-treated HLMVECs: Endothelin-1; type: cell-based, human; details: 24 h, mean±SD
# Procedure: as §1
# PDGF-B = assay: quantitative RT-PCR of PH-causing genes in DMOG-treated HLMVECs: PDGF-B; type: cell-based, human; details: 24 h, mean±SD
# Procedure: as §1
# MCT-challenged rats = assay: monocrotaline (MCT) rat model of pulmonary hypertension; type: in vivo
# Procedure: (A) Representative micrographs of Russel-Movat pentachrome staining of MCT-rat lungs. […] (B) Quantification of PA wall thickness in MCT rat lungs. […] Lung sections were immunostained with anti-α-smooth muscle actin (α-SMA) antibody (red); nuclei were counterstained with DAPI (blue). […] Scale bars: 50 μm.
# FIG. 6. […] At 14 days post-MCT challenge, the rats were treated with HEAQ (20 mg/kg, oral, daily) or PBS for another 14 days.
# RVSP was measured (A) and RV hypertrophy was calculated (B) at 28 days post-treatment. […] One-way ANOVA.
# At 14 days post-MCT challenge, the rats were treated with Propantheline (1.0 mg/kg, i.p., twice a day) and Ethacridine (7.5 mg/kg, i.p., twice a day) (P+E) at the same time for 14 days. A separate group of rats was treated with either Propantheline (2.5 mg/kg, i.p., twice a day). RVSP was measured (A) and RV hypertrophy was calculated (B) at 28 days post-treatment. […] One-way ANOVA.
# 786-O cells = assay: control SV40-luciferase activity in 786-O cells (toxicity); type: cell-based, human; details: for SV40-Luc (of control): 2.5 uM; for control SV40 luciferase activity (cell toxicity), result in words: quinidine at the doses tested
# HIF-2α [2] = assay: Western blotting of HIF-2α protein level; type: cell-based
# [3] = molecular target: human ether-à-go-go-related gene (hERG) channel (Homo sapiens, UniProt Q12809); details: from reference 21; read-out: hERG channel inhibition IC50; cited from earlier work
# Chain of human ether-à-go-go-related gene (hERG) channel (Q12809 whole entry): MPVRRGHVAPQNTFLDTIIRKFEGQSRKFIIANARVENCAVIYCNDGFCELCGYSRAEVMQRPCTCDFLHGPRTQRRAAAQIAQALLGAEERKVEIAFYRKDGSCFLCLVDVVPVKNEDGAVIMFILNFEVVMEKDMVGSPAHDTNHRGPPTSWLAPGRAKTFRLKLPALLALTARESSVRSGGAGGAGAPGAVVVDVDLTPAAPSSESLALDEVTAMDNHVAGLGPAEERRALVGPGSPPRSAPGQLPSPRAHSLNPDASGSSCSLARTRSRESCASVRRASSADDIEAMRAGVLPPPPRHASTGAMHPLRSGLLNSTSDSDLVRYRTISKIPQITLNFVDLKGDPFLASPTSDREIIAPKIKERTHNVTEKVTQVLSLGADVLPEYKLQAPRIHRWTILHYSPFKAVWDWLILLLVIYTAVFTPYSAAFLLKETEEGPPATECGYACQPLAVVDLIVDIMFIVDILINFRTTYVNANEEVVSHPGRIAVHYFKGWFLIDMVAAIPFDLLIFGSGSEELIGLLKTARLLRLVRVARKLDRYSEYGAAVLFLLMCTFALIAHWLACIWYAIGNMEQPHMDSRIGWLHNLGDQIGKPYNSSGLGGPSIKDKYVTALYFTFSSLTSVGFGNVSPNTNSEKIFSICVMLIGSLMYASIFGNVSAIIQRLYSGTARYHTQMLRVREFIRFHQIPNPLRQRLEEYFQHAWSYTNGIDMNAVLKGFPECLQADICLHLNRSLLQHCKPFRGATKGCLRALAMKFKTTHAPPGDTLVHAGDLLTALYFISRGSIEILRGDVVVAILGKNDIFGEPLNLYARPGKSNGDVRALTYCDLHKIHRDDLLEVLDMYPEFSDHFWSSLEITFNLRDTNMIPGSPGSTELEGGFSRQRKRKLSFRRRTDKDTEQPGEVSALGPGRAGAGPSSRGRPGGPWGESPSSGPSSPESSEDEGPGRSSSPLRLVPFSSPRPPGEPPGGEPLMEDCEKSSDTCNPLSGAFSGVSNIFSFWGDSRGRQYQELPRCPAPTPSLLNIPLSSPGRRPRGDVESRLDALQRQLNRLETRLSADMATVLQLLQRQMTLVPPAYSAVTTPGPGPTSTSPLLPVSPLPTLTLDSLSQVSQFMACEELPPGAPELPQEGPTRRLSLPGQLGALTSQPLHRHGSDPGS
# [4] = MCT rat lungs, quinidine s.c. osmotic pump 10-12 mg/kg/day, 14 days
# [5] = MCT rats, quinidine s.c. osmotic pump 10-12 mg/kg/day, 14 days
# [6] = MCT rats, quinidine s.c. osmotic pump 10-12 mg/kg/day, 14 days from 2 weeks post-MCT
compound,measurement,setting,value
"CCOc1ccc2nc3cc(N)ccc3c(N)c2c1 [Ethacridine, 7-ethoxyacridine-3,9-diamine]",inhibition at 2.5 µM,"HIF-2α [1]; 786-0, 786-O cells, 2.5 uM",70%
same,inhibition at 5 µM,"HIF-2α [1]; 786-0, 786-O cells, 5 uM, 24 h, read-out: inhibition of HRE activity, i.e., HIF activity",~80%
same,"HRE luciferase activity (HIF activity), result in words",HIF-2α [1]; 24 h,potent HIF α inhibitors
same,SDF1 expression (control = 1.00),"SDF1; 20 & 30 uM, DMOG alone 1.80 ± 0.06",12.9 ± 8.1
same,SDF1 expression (control = 1.00),"SDF1; 20 & 30 uM, DMOG alone 1.80 ± 0.06, listed as ethacridine",induced SDF-1 expression
same,Endothelin-1 expression (control = 1.00),"Endothelin-1; 20 & 30 uM, DMOG alone 2.36 ± 0.23",0.12 ± 0.07
same,Endothelin-1 expression (control = 1.00),"Endothelin-1; 20 & 30 uM, DMOG alone 2.36 ± 0.23, listed as ethacridine",markedly inhibited
same,PDGF-B expression (control = 1.00),"PDGF-B; 20 & 30 uM, DMOG alone 2.05 ± 0.33",0.52 ± 0.31
same,PDGF-B expression (control = 1.00),"PDGF-B; 20 & 30 uM, DMOG alone 2.05 ± 0.33, listed as ethacridine",markedly inhibited
same,PH (RVSP),"MCT-challenged rats; MCT rats, ethacridine alone 7.5 mg/kg i.p. twice a day, 14 days",didn't inhibit PH
"COc1cc([C@@H]2c3cc4c(cc3[C@@H](O[C@@H]3O[C@@H]5CO[C@@H](C)O[C@H]5[C@H](O)[C@H]3O)[C@H]3COC(=O)[C@H]23)OCO4)cc(OC)c1O [Etoposide, (5S,5aR,8aR,9R)-5-[[(2R,4aR,6R,7R,8R,8aS)-7,8-dihydroxy-2-methyl-4,4a,6,7,8,8a-hexahydropyrano[3,2-d][1,3]dioxin-6-yl]oxy]-9-(4-hydroxy-3,5-dimethoxyphenyl)-5a,6,8a,9-tetrahydro-5H-[2]benzofuro[6,5-f][1,3]benzodioxol-8-one]",HRE-Luc (of control),"HIF-2α [1]; 786-O cells, 1.25 uM",0.34
same,"HRE luciferase activity (HIF activity), result in words",HIF-2α [1]; 24 h,potent HIF α inhibitors
same,SDF1 expression (control = 1.00),"SDF1; 20 & 40 uM, DMOG alone 1.80 ± 0.06",1.25 ± 0.80
same,Endothelin-1 expression (control = 1.00),"Endothelin-1; 20 & 40 uM, DMOG alone 2.36 ± 0.23",0.47 ± 0.50
same,Endothelin-1 expression (control = 1.00),"Endothelin-1; 20 & 40 uM, DMOG alone 2.36 ± 0.23, listed as etoposide",markedly inhibited
same,PDGF-B expression (control = 1.00),"PDGF-B; 20 & 40 uM, DMOG alone 2.05 ± 0.33",0.77 ± 0.37
same,PDGF-B expression (control = 1.00),"PDGF-B; 20 & 40 uM, DMOG alone 2.05 ± 0.33, listed as etoposide",markedly inhibited
"CCc1c2c(nc3ccc(OC(=O)N4CCC(N5CCCCC5)CC4)cc13)-c1cc3c(c(=O)n1C2)COC(=O)[C@]3(O)CC [Irinotecan, [(19S)-10,19-diethyl-19-hydroxy-14,18-dioxo-17-oxa-3,13-diazapentacyclo[11.8.0.0^2,11.0^4,9.0^15,20]henicosa-1(21),2,4(9),5,7,10,15(20)-heptaen-7-yl] 4-piperidin-1-ylpiperidine-1-carboxylate; hydrochloride]",SV40-Luc (of control),786-O cells; hydrochloride,0.99
same,SV40-Luc (of control),"786-O cells; listed as irinotecan, hydrochloride",without clear toxicity
same,inhibition at 2.5 µM,"HIF-2α [1]; 786-0, 786-O cells, 2.5 uM",65 to 77%
same,HRE-Luc (of control),"HIF-2α [1]; 786-O cells, 2.5 uM",0.23
same,"HRE luciferase activity (HIF activity), result in words",HIF-2α [1]; 24 h,potent HIF α inhibitors
CC[N+](C)(CC)CCOC(=O)C1c2ccccc2Oc2ccccc21 [Methantheline],SV40-Luc (of control),786-O cells,0.86
same,SV40-Luc (of control),786-O cells; listed as methantheline,without clear toxicity
same,inhibition at 2.5 µM,"HIF-2α [1]; 786-0, 786-O cells, 2.5 uM",65 to 77%
same,HRE-Luc (of control),"HIF-2α [1]; 786-O cells, 2.5 uM",0.31
same,"HRE luciferase activity (HIF activity), result in words",HIF-2α [1]; 24 h,potent HIF α inhibitors
CC(C)[N+](C)(CCOC(=O)C1c2ccccc2Oc2ccccc21)C(C)C.[Br-] [Propantheline],SDF1 expression (control = 1.00),"SDF1; 40 uM, DMOG alone 1.80 ± 0.06",0.53 ± 0.37
same,SDF1 expression (control = 1.00),"SDF1; 40 uM, DMOG alone 1.80 ± 0.06, listed as propantheline",mainly inhibited SDF-1 expression
same,Endothelin-1 expression (control = 1.00),"Endothelin-1; 40 uM, DMOG alone 2.36 ± 0.23",1.70 ± 0.45
same,PDGF-B expression (control = 1.00),"PDGF-B; 40 uM, DMOG alone 2.05 ± 0.33",1.55 ± 0.44
"C=C[C@H]1C[N@]2CC[C@H]1C[C@@H]2[C@@H](O)c1ccnc2ccc(OC)cc12 [Quinidine, (2-Ethenyl-4-azabicyclo[2.2.2]oct-5-yl)-(6-methoxyquinolin-4-yl)-methanol]","control SV40 luciferase activity (cell toxicity), result in words",786-O cells,didn't repress control SV40 luciferase activity
same,"control SV40 luciferase activity (cell toxicity), result in words",786-O cells; listed as quinidine,without obvious toxicity
same,inhibition at 20 µM,"HIF-2α [1]; 786-0, 786-O cells, 20 uM",~70%
same,"HRE luciferase activity (HIF activity), result in words",HIF-2α [1]; 24 h,repressed HRE luciferase (Luc) activity in a dose-dependent manner
same,"HRE luciferase activity (HIF activity), result in words","HIF-2α [1]; 24 h, listed as quinidine",inhibition of HRE/luciferase activity in a dose-dependent manner
same,HIF-2α protein level,HIF-2α [2],didn't inhibit expression
same,expression of HIF-2α downstream target genes in lungs,"MCT-challenged rats; MCT rat lungs, quantitative RT-PCR, quinidine vs vehicle",normalized or markedly inhibited; also recorded: suppressed HIF-2α activation in MCT-rat lungs
same,muscularization of distal pulmonary arteries (<75 μm),MCT-challenged rats; [4],markedly attenuated; also recorded: Marked decrease in muscularization of distal pulmonary arterioles
same,pulmonary artery wall thickening (pulmonary vascular remodeling),MCT-challenged rats; [4],markedly attenuated; also recorded: reversed pulmonary vascular remodeling
same,"survival, result in words","MCT-challenged rats; MCT rats, Log-rank test",promoted survival
same,PH (RVSP),"MCT-challenged rats; MCT rats, quinidine alone 10 mg/kg oral twice a day, 14 days",didn't inhibit PH
same,RV contractility,MCT-challenged rats; [5],Improved RV contractility
same,RV wall thickness (echocardiography),MCT-challenged rats; [5],decreased RV wall thickness; also recorded: reduction in RV wall thickness
same,RV hypertrophy,MCT-challenged rats; [6],marked decrease; also recorded: reduced
same,right ventricular systolic pressure (RVSP),MCT-challenged rats; [6],marked decrease; also recorded: reduced RVSP
same,survival rate,"MCT-challenged rats; day 28 post-MCT challenge with a lethal dose, all vehicle rats had died",90%
hydroxyethylapoquinine [HEAQ],IC50,[3],> 90 µM
same,"HRE luciferase activity (HIF activity), result in words",HIF-2α [1]; 24 h,could inhibit HIF activity as efficiently as Quinidine
same,PH (RVSP),"MCT-challenged rats; MCT rats, HEAQ 20 mg/kg oral daily for 14 days from 14 days post-MCT",attenuate PH; also recorded: markedly reduced RVSP
